How the values were obtained:
OR2J2 (human) [1] = molecular target: T1, OR2J2 (human) (Homo sapiens, UniProt O76002); assay: cAMP-mediated CRE-luciferase reporter dose-response, Hana3A cells; type: cell-based; conditions: agonist; human RTP1S and M3 receptor co-expressed; odor 10 nM to 10 mM
T1 construct: full-length ORF from genomic DNA, N-terminal Rho-tag, Hana3A cells with human RTP1S
T1 sequence (O76002 1-312): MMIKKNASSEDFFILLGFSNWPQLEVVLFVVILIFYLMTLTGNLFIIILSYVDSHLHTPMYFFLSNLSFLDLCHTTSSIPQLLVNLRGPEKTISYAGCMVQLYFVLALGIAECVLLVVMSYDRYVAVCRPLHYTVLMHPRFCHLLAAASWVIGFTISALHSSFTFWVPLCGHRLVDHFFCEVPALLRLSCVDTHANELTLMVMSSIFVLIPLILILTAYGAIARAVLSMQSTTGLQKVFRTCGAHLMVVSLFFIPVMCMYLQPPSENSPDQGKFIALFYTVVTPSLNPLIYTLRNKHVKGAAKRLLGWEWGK

OR2J2 (human) [2] = molecular target: T1, OR2J2 (human); assay: cell-based; design: species or system Hana3A; cAMP-mediated luciferase reporter dose-response of odorant receptor orthologs and paralogs
Excerpt: (§1) Figure 6 Dose-response curves of OR orthologs and paralogs to a given ligand. (A) OR5K1 orthologs and 5 K subfamily to eugenol methyl ether. (B) OR8D1 orthologs and 8D subfamily members to 4,5-dimethyl-3-hydroxy-2,5-dihydrofuran-2-one. […] X-axis is the concentration of a given odor in Log Molar. Y-axis is normalized response (n = 3, ± S.E.M.). Human (h), chimpanzee (c) and rhesus macaque (m), mouse receptors (m+number); para indicates a receptor that is a paralog to the human reference OR. Vector control is Rho-pCI. See Figure S11 for additional dose-response data from orthologs and subfamily members. Supplementary file pgen.1002821.s018.pdf: Table S5 Comparison of dose-response curves from orthologs and paralogs. LogEC50 (M), Span (dynamic-range) for each OR is given. […] F-ratio and p-values from extra sum-of-squares test. (PDF) Click here for additional data file.  Figure 2 Response of OR orthologs to 42 chemically diverse odors. (A) Tuning curves of human, chimp and macaque OR2W1 orthologs tested against 42 odors using a cAMP-mediated luciferase assay. Odorants are ordered along the x-axis according to the response elicited from the human OR2W1, with the best ligands closer to the center. Y-axis represents the luciferase response to an odor at 100 µM (n = 3, ± S.E.). Negative values on the y-axis indicate the odor elicited an inhibitory response on OR signaling. See Figure S6 for additional tuning curves. (B) Response of chimp and macaque OR2W1 orthologs (variant responses) plotted against the human OR2W1 response using the data from (A). X-axis and y-axis are response in luciferase assay at 100 µM (n = 3, ± S.E.). The black line represents the unit-slope line. Odor abbreviations in Table S3.

h2J1 = molecular target: T2, h2J1 (Homo sapiens, UniProt Q9GZK6); assay: cell-based; design: species or system Hana3A; cAMP-mediated luciferase reporter dose-response of odorant receptor orthologs and paralogs
T2 construct: gene OR2J1
Excerpt: as §1

h2J3 = molecular target: T3, h2J3 (Homo sapiens, UniProt O76001); assay: cell-based; design: species or system Hana3A; cAMP-mediated luciferase reporter dose-response of odorant receptor orthologs and paralogs
T3 construct: gene OR2J3
Excerpt: as §1

chimp OR8D1 [3] = molecular target: T4, chimp OR8D1 (Pan troglodytes, UniProt A0A2J8N1S1); assay: cAMP-mediated CRE-luciferase reporter dose-response, Hana3A cells; type: cell-based; conditions: agonist; human RTP1S and M3 receptor co-expressed; odor 10 nM to 10 mM
T4 construct: gene LOC466828; full-length ORF from genomic DNA, N-terminal Rho-tag, Hana3A cells with human RTP1S

chimp OR8D1 [4] = molecular target: T4, chimp OR8D1; assay: cell-based; design: species or system Hana3A; cAMP-mediated luciferase reporter dose-response of odorant receptor orthologs and paralogs
Excerpt: as §1

chimp OR8K3 [5] = molecular target: T5, chimp OR8K3 (Pan troglodytes, UniProt A0A2J8LC19); assay: cAMP-mediated CRE-luciferase reporter dose-response, Hana3A cells; type: cell-based; conditions: agonist; human RTP1S and M3 receptor co-expressed; odor 10 nM to 10 mM
T5 construct: gene LOC466557; full-length ORF from genomic DNA, N-terminal Rho-tag, Hana3A cells with human RTP1S

chimp OR8K3 [6] = molecular target: T5, chimp OR8K3; assay: cell-based; design: species or system Hana3A; cAMP-mediated luciferase reporter dose-response of odorant receptor orthologs and paralogs
Excerpt: as §1

human OR51L1 = human OR51L1 (Homo sapiens, UniProt Q8NGJ5); assay: cell-based; design: species or system Hana3A; cAMP-mediated luciferase reporter assay of odorant receptor activation, dose-response, ortholog pairs; conditions: ortholog set
Procedure: (§2) Figure 2 Response of OR orthologs to 42 chemically diverse odors. (A) Tuning curves of human, chimp and macaque OR2W1 orthologs tested against 42 odors using a cAMP-mediated luciferase assay. Odorants are ordered along the x-axis according to the response elicited from the human OR2W1, with the best ligands closer to the center. Y-axis represents the luciferase response to an odor at 100 µM (n = 3, ± S.E.). Negative values on the y-axis indicate the odor elicited an inhibitory response on OR signaling. See Figure S6 for additional tuning curves. (B) Response of chimp and macaque OR2W1 orthologs (variant responses) plotted against the human OR2W1 response using the data from (A). X-axis and y-axis are response in luciferase assay at 100 µM (n = 3, ± S.E.). The black line represents the unit-slope line. Odor abbreviations in Table S3. We next wanted to examine the functional changes in sensitivity of orthologs to individual ligands by testing each ortholog across a range of concentrations. We selected a single odor for a given OR to construct a representative dose-response curve, fit the data to a sigmoid curve, and then compared the response of the human allele against the primate orthologs and the mouse allele with the rat ortholog using an extra sum of squares test. […]

h51E1 = molecular target: T6, h51E1 (Homo sapiens, UniProt Q8TCB6); assay: cell-based; design: species or system Hana3A; cAMP-mediated luciferase reporter dose-response of odorant receptor orthologs and paralogs
T6 construct: gene OR51E1
Excerpt: as §1

h2B11 = molecular target: T7, h2B11 (Homo sapiens, UniProt Q5JQS5); assay: cell-based; design: species or system Hana3A; cAMP-mediated luciferase reporter dose-response of odorant receptor orthologs and paralogs
T7 construct: gene OR2B11
Excerpt: as §1

h5P3 = molecular target: T8, h5P3 (Homo sapiens, UniProt Q8WZ94); assay: cell-based; design: species or system Hana3A; cAMP-mediated luciferase reporter dose-response of odorant receptor orthologs and paralogs
T8 construct: gene OR5P3
Excerpt: as §1

mouse MOR256-17 = molecular target: T9, mouse MOR256-17 (Mus musculus, UniProt P23275); assay: cell-based; design: species or system Hana3A; cAMP-mediated luciferase reporter assay of odorant receptor activation, dose-response, ortholog pairs; conditions: ortholog set
T9 construct: gene Or2c1
Procedure: as §2

h56A1 = molecular target: T10, h56A1 (Homo sapiens, UniProt Q8NGH5); assay: cell-based; design: species or system Hana3A; cAMP-mediated luciferase reporter dose-response of odorant receptor orthologs and paralogs
T10 construct: gene OR56A1
Excerpt: as §1

h56A4 = molecular target: T11, h56A4 (Homo sapiens, UniProt Q8NGH8); assay: cell-based; design: species or system Hana3A; cAMP-mediated luciferase reporter dose-response of odorant receptor orthologs and paralogs
T11 construct: gene OR56A4
Excerpt: as §1

h56A5 = molecular target: T12, h56A5 (Homo sapiens, UniProt P0C7T3); assay: cell-based; design: species or system Hana3A; cAMP-mediated luciferase reporter dose-response of odorant receptor orthologs and paralogs
T12 construct: gene OR56A5
Excerpt: as §1

h10G3 = molecular target: T13, h10G3 (Homo sapiens, UniProt Q8NGC4); assay: cell-based; design: species or system Hana3A; cAMP-mediated luciferase reporter dose-response of odorant receptor orthologs and paralogs
T13 construct: gene OR10G3
Excerpt: as §1

h10G4 = molecular target: T14, h10G4 (Homo sapiens, UniProt Q8NGN3); assay: cell-based; design: species or system Hana3A; cAMP-mediated luciferase reporter dose-response of odorant receptor orthologs and paralogs
T14 construct: gene OR10G4
Excerpt: as §1

h10G9 = molecular target: T15, h10G9 (Homo sapiens, UniProt Q8NGN4); assay: cell-based; design: species or system Hana3A; cAMP-mediated luciferase reporter dose-response of odorant receptor orthologs and paralogs
T15 construct: gene OR10G9
Excerpt: as §1

chimp OR5K1 = molecular target: T16, chimp OR5K1 (Pan troglodytes, UniProt A0A2J8MY22); assay: cAMP-mediated CRE-luciferase reporter dose-response, Hana3A cells; type: cell-based; conditions: agonist; human RTP1S and M3 receptor co-expressed; odor 10 nM to 10 mM
T16 construct: gene LOC470870; full-length ORF from genomic DNA, N-terminal Rho-tag, Hana3A cells with human RTP1S

h2A25 = molecular target: T17, h2A25 (Homo sapiens, UniProt A4D2G3); assay: cell-based; design: species or system Hana3A; cAMP-mediated luciferase reporter dose-response of odorant receptor orthologs and paralogs
T17 construct: gene OR2A25
Excerpt: as §1

h10J1 = molecular target: T18, h10J1 (Homo sapiens, UniProt P30954); assay: cell-based; design: species or system Hana3A; cAMP-mediated luciferase reporter dose-response of odorant receptor orthologs and paralogs
T18 construct: gene OR10J1
Excerpt: as §1

h10J5 = molecular target: T19, h10J5 (Homo sapiens, UniProt Q8NHC4); assay: cell-based; design: species or system Hana3A; cAMP-mediated luciferase reporter dose-response of odorant receptor orthologs and paralogs
T19 construct: gene OR10J5
Excerpt: as §1

MOR267-13 = molecular target: T20, MOR267-13 (Mus musculus, UniProt Q62007); assay: cell-based; design: species or system Hana3A; cAMP-mediated luciferase reporter assay of odorant receptor activation, dose-response, orthologs and paralogs; conditions: ortholog and paralog set
T20 construct: gene Or10j5
Procedure: Figure 2 Response of OR orthologs to 42 chemically diverse odors. (A) Tuning curves of human, chimp and macaque OR2W1 orthologs tested against 42 odors using a cAMP-mediated luciferase assay. Odorants are ordered along the x-axis according to the response elicited from the human OR2W1, with the best ligands closer to the center. Y-axis represents the luciferase response to an odor at 100 µM (n = 3, ± S.E.). Negative values on the y-axis indicate the odor elicited an inhibitory response on OR signaling. See Figure S6 for additional tuning curves. (B) Response of chimp and macaque OR2W1 orthologs (variant responses) plotted against the human OR2W1 response using the data from (A). X-axis and y-axis are response in luciferase assay at 100 µM (n = 3, ± S.E.). The black line represents the unit-slope line. Odor abbreviations in Table S3. Figure 6 Dose-response curves of OR orthologs and paralogs to a given ligand. (A) OR5K1 orthologs and 5 K subfamily to eugenol methyl ether. (B) OR8D1 orthologs and 8D subfamily members to 4,5-dimethyl-3-hydroxy-2,5-dihydrofuran-2-one. […] X-axis is the concentration of a given odor in Log Molar. Y-axis is normalized response (n = 3, ± S.E.M.). Human (h), chimpanzee (c) and rhesus macaque (m), mouse receptors (m+number); para indicates a receptor that is a paralog to the human reference OR. Vector control is Rho-pCI. […]

T4 sequence (A0A2J8N1S1 1-308): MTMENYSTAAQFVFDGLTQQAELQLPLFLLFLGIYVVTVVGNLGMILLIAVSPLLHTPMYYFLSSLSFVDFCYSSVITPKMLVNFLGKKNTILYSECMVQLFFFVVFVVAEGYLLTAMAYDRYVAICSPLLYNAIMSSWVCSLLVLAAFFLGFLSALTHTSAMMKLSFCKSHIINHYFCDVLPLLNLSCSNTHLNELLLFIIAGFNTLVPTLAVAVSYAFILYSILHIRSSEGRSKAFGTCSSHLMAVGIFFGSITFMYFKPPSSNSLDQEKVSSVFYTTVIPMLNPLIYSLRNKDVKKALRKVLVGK
T2 sequence (Q9GZK6 whole entry): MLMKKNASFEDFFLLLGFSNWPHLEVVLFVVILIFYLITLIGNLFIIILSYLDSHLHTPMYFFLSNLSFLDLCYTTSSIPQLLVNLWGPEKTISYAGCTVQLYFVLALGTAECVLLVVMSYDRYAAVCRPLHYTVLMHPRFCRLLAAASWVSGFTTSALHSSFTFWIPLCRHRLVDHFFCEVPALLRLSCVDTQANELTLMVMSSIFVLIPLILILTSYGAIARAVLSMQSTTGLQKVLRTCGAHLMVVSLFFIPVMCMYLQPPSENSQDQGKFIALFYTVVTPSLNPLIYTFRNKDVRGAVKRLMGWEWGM
T5 sequence (A0A2J8LC19 1-312): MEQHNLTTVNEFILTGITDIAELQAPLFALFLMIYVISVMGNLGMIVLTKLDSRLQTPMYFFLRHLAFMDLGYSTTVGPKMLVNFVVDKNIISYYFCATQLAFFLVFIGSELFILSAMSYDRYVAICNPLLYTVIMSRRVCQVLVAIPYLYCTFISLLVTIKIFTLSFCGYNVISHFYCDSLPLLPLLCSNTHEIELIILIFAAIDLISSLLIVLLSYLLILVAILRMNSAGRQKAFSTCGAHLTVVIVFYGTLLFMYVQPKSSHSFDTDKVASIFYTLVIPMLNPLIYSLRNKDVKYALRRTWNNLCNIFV
T3 sequence (O76001 whole entry): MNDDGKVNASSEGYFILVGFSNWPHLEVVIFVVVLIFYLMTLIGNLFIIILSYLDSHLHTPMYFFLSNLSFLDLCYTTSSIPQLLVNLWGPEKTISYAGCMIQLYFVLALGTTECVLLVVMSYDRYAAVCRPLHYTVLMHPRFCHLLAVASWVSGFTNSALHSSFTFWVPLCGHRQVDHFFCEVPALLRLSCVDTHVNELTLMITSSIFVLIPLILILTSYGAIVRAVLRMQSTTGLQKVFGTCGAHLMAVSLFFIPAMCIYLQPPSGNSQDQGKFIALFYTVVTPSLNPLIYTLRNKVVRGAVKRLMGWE
T13 sequence (Q8NGC4 whole entry): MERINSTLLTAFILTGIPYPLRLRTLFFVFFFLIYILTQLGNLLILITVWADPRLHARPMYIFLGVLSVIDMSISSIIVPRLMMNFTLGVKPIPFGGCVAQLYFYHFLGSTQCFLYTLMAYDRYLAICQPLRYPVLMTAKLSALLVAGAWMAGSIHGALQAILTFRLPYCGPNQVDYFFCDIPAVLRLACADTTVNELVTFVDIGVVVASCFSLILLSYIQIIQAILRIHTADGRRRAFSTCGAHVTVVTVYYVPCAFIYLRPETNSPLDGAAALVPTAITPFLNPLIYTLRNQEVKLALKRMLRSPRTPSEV
T14 sequence (Q8NGN3 whole entry): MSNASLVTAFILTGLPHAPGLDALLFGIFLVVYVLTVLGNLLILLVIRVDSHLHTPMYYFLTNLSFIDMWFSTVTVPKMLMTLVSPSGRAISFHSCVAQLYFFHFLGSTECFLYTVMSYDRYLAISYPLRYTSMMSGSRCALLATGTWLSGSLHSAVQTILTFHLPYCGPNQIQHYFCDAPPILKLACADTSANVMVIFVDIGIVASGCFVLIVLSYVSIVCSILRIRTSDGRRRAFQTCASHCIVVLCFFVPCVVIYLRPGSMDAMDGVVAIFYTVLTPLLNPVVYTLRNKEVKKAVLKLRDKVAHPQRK
T10 sequence (Q8NGH5 whole entry): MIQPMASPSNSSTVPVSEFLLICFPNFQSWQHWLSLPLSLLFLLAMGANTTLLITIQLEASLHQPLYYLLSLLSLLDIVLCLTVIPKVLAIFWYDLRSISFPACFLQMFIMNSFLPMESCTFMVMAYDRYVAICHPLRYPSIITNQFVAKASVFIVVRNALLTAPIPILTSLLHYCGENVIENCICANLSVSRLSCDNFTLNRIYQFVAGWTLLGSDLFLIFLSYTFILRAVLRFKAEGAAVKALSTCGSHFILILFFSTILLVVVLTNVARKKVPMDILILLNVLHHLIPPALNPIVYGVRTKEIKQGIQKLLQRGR
T20 sequence (Q62007 whole entry): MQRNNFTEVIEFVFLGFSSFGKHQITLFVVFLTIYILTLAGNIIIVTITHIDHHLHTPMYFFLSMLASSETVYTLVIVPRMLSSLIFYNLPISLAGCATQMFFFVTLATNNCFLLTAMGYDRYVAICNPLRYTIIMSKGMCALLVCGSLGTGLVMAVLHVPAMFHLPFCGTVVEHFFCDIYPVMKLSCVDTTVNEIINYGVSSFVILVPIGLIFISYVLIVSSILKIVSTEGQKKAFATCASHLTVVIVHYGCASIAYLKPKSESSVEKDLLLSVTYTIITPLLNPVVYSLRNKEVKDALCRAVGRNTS
T11 sequence (Q8NGH8 whole entry): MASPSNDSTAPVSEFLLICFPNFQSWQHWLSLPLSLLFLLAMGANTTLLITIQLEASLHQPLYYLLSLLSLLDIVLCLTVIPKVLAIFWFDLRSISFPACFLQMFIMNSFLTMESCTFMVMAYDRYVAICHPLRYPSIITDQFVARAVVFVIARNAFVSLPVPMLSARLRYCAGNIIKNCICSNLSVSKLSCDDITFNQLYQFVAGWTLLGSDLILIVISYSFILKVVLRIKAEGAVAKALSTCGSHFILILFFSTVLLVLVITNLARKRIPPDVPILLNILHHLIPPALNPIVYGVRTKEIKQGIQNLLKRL
T17 sequence (A4D2G3 whole entry): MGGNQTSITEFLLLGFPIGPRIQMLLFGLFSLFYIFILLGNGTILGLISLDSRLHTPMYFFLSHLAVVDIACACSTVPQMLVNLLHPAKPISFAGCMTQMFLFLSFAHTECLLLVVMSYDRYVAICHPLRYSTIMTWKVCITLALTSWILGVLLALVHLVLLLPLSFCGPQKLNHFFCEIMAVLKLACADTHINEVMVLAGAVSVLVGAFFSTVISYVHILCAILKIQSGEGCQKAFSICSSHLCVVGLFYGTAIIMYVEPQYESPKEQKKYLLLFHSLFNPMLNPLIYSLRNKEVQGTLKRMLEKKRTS
T16 sequence (A0A2J8MY22 1-308): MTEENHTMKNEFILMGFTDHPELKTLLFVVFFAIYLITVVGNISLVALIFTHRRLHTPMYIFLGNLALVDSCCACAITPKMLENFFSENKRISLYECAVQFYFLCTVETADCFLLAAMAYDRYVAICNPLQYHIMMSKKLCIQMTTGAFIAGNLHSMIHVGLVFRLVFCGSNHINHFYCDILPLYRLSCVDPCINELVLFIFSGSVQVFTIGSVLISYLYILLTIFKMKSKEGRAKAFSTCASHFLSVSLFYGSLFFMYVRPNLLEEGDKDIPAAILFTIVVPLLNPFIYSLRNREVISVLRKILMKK
T7 sequence (Q5JQS5 whole entry): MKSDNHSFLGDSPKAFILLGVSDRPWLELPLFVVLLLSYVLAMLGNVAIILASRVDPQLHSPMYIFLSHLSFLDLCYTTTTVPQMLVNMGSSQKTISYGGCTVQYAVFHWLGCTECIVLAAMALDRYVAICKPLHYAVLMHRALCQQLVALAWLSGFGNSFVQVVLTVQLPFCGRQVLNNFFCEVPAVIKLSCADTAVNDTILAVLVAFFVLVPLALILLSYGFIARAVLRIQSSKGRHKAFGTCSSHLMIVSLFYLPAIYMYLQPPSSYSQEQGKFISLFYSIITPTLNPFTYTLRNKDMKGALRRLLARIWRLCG
T6 sequence (Q8TCB6 whole entry): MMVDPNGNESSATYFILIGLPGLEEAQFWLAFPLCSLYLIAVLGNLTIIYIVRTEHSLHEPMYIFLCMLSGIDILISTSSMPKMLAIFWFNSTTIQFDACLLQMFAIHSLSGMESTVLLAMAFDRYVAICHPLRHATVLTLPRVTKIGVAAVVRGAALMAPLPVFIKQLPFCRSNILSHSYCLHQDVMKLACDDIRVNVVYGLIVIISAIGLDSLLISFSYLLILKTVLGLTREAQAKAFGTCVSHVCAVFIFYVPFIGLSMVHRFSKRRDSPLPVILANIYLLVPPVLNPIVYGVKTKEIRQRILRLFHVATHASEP
Chain of human OR51L1 (Q8NGJ5 whole entry): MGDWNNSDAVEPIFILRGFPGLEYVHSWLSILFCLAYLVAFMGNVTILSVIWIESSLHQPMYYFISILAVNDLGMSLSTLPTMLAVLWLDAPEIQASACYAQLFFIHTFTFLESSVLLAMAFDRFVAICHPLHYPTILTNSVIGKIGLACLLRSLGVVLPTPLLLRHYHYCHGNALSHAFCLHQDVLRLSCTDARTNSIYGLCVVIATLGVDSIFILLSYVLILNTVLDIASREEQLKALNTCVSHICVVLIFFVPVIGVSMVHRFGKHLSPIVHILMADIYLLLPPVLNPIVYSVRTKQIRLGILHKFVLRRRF
T9 sequence (P23275 whole entry): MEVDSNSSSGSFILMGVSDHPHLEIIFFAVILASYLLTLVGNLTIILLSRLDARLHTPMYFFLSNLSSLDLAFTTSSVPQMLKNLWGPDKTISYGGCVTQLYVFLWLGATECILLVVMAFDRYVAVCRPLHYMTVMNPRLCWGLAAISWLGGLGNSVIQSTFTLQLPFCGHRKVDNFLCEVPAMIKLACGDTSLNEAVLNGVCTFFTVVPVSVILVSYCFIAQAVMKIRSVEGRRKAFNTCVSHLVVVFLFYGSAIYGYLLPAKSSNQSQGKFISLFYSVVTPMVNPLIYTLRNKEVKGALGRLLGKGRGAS

## CCCCCCCCO [1-octanol]
OR2J2 (human) [1]
  LogEC50: OR2J2 orthologs and 2J subfamily members to 1-octanol
OR2J2 (human) [2]
  EC50: 7.41 µM
h2J1
  EC50: 112 µM
h2J3
  EC50: 1.86 µM

## CC1=C(O)C(=O)OC1C (stereo not shown) [4,5-dimethyl-3-hydroxy-2,5-dihydrofuran-2-one]
Chimp OR8D1 [3]
  LogEC50: Human OR8D1 is hyperfunctional to chimp and macaque OR8D1 orthologs
Chimp OR8D1 [4]
  EC50: 18.6 µM

## CC(C)[C@H]1CC[C@H](C)C[C@@H]1O [(+)-menthol]
Chimp OR8K3 [5]
  LogEC50: human and chimp OR8K3 orthologs are indistinguishable in their response to (+)-menthol
Chimp OR8K3 [6]
  EC50: 9.12 µM

## C=CCOC(=O)Cc1ccccc1 [allyl phenyl acetate]
Human OR51L1
  EC50: 9.12 µM

## CCCC(=O)O [butyric acid]
h51E1
  EC50: 57.5 µM

## O=c1ccc2ccccc2o1 [coumarin]
h2B11
  EC50: 72.4 µM
h5P3
  EC50: 2.95 µM
Mouse MOR256-17
  EC50: 44.7 µM

## CCCCCCCCCC=O [decyl aldehyde]
h56A1
  EC50: 575 µM
h56A4
  EC50: 191 µM
h56A5
  EC50: 162 µM

## CCOc1cc(C=O)ccc1O [ethyl vanillin]
h10G3
  EC50: 41.7 µM
h10G4
  EC50: 40.7 µM
h10G9
  EC50: 537 µM

## C=CCc1ccc(OC)c(OC)c1 [eugenol methyl ether]
Chimp OR5K1
  LogEC50: human OR5K1 is hyperfunctional to both chimp and macaque OR5K1 orthologs

## C=CCc1ccc(O)c(OC)c1 [eugenol]
h10G3
  EC50: 132 µM

## CC(=O)OC/C=C(\C)CCC=C(C)C [geranyl acetate]
OR2J2 (human) [2]
  EC50: 42.7 µM
h2A25
  EC50: 9.55 µM
h2J1
  EC50: 479 µM
h2J3
  EC50: 162 µM

## CC(C)(O)CCCC1=CCC(C=O)CC1 (stereo not shown) [lyral]
h10J1
  EC50: 724 µM
h10J5
  EC50: 47.9 µM
MOR267-13
  EC50: 20.9 µM

— article PMC3395614, “Functional Evolution of Mammalian Odorant Receptors” (PLoS Genetics, 2012)
